One assay relates to ckr mouse. Nature of the assay: Hyperactivity and circling in ckr mice (model validation). Type of assay: in vivo. As to conditions: rate of hyperactivity and circling after administration, concentrations relevant to human clinical use. As for the experimental part: The mouse also presents lateral ventricular enlargement, which may mirror neuropathological observations in shizophrenia. […] We have further validated this model by testing risperidone, clozapine, haloperidol and pimozide in the ckr mouse. The behavioral output was assayed by measuring the rate of hyperactivity and circling after administration.

For assay [1], the target named is T1, norepinephrine transporter (Rattus norvegicus, UniProt Q9WTR4).
T1 construct: tissue Pel-Freez, Rogers, AR; host or cells: rat forebrain membranes
Nature of the assay: [3H]nisoxetine displacement at norepinephrine transport sites, rat forebrain membranes. The format is binding. As to conditions: NE (Ki, nM), displacement of 0.7 nM [3H]nisoxetine. As for the experimental part:
(§1) For this Example, binding of at biogenic amine transporters was determined using striatum and frontal cortex dissected from frozen Sprague-Dawley rat brains (Pel-Freez, Rogers, AR). Affinities of analogs at dopamine transport sites were determined by displacement of [^125I]RTI-55 binding in membranes from rat striatum, using 0.5 mg (original wet weight) of membranes and 10 pM [^125]RTI-55. Non-specific binding was determined in the presence of 1 μM WF-23 (analog 3a). Affinities of analogs at 5-HT transport sites were determined by displacement of [^3H] paroxetine binding in membranes from rat frontal cortex, using 50 mg (original wet weight) of membranes and 0.4 nM [^3H]paroxetine. Non-specific binding was determined in the presence of 10 μM fluoxetine. Binding of analogs at norepinephrine transport sites was determined by displacement of [^3H]nisoxetine binding in membranes from rat forebrain, using 0.7 nM [^3H]nisoxetine. Non-specific binding was determined in the presence of 1 μM desipramine.
(§2) Potencies were calculated from displacement curves using 7-10 concentrations of unlabeled analogs, as analyzed by non-linear curve fitting. Because binding of tropanes at dopamine transporters is generally regarded as multiphasic,^3 potencies in inhibiting [^125I]RTI-55 binding are reported as IC50 values. For [^3H]paroxetine and [^3H]nisoxetine binding assays, Ki values were calculated using the Cheng-Prusoff equation. All data are mean values±S.E.M. of at least three separate experiments, each of which was conducted in triplicate.
(§3) The binding affinities to dopamine (DA), serotonin (5-HT), and norepinephrine (NE) transporters for the series of compounds (4) are presented in Table 1.

Another assay deals with T2, 5-HT transporter (Rattus norvegicus, UniProt P31652).
T2 construct: tissue Pel-Freez, Rogers, AR; host or cells: rat frontal cortex membranes
Nature of the assay: [3H]paroxetine displacement at 5-HT transport sites, rat frontal cortex membranes. Type of assay: binding. As for the experimental part: as §1, §2, §3

A further assay deals with T3, dopamine transporter (Rattus norvegicus, UniProt P23977).
T3 construct: tissue Pel-Freez, Rogers, AR; host or cells: rat striatum membranes
Kind of assay: [125I]RTI-55 displacement at dopamine transport sites, rat striatum membranes. Type of assay: binding. The conditions noted are these: DA (IC50, nM), displacement of 10 pM [125I]RTI-55, rat striatum. As for the experimental part: as §1, §2, §3

Where a name gives a salt, the structure may show the parent alone.

In general, Ki refers to a measure of affinity in units of concentration, obtained from inhibition or displacement. A higher Ki goes with weaker binding. In general, IC50 refers to the midpoint of a concentration-inhibition curve. A higher IC50 goes with lower potency.

T1 sequence (Q9WTR4 1-597): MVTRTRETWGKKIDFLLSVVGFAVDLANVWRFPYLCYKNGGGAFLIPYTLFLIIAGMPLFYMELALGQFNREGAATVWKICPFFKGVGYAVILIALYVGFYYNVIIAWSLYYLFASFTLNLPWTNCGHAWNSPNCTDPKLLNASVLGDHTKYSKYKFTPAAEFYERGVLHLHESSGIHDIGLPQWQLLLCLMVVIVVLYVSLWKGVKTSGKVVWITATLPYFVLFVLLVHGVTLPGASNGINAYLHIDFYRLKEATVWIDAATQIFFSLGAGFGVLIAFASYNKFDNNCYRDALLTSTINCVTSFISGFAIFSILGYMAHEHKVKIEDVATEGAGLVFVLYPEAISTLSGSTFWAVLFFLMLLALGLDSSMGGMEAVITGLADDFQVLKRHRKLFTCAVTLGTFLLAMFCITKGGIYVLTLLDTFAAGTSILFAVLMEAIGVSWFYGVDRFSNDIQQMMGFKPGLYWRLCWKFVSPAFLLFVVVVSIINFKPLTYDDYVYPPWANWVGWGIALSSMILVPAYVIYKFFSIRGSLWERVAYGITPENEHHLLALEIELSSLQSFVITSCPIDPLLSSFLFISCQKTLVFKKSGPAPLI
T2 sequence (P31652 whole entry): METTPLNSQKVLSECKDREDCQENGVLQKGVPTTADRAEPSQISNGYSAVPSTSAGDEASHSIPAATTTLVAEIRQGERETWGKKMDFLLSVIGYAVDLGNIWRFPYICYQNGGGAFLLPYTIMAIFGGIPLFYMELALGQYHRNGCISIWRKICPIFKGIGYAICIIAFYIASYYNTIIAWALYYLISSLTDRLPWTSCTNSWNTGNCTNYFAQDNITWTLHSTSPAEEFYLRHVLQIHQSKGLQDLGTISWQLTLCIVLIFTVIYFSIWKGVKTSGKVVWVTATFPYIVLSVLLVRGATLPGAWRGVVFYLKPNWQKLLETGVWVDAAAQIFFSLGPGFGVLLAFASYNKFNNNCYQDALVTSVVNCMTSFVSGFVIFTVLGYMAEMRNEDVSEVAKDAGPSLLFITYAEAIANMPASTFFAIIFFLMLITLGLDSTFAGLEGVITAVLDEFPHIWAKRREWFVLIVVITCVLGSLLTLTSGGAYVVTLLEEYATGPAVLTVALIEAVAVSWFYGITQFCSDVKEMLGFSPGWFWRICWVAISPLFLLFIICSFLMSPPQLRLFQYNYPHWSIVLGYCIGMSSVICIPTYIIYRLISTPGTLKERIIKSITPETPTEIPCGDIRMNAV
T3 sequence (P23977 whole entry): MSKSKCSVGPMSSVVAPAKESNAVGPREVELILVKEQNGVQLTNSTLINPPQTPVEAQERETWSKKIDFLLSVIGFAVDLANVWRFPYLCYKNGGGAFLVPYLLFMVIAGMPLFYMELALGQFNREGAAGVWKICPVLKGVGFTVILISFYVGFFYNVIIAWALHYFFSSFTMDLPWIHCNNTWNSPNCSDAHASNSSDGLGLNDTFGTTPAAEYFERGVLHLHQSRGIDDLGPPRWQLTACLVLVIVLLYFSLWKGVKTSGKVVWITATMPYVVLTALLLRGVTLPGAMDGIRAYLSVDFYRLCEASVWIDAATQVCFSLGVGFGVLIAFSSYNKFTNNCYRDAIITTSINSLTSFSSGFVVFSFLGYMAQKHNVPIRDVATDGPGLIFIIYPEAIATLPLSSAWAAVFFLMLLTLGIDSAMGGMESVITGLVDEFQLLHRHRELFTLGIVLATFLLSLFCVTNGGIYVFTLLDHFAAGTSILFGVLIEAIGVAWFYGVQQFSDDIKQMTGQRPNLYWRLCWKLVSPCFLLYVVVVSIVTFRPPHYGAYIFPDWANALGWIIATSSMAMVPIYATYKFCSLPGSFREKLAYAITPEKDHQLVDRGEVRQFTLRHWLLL

Consider `Cc1nc2n(c(=O)c1CCN1CCC(c3noc4cc(F)ccc34)CC1)CCCC2` [risperidone], for which the “hyperactivity in ckr mice” value in the assay with ckr mouse is listed as “dose-dependent attenuation of hyperactivity”.

Regarding `COC(=O)[C@@H](c1ccc(Cl)cc1)[C@H]1C=CCCN1` [(2S,2′R)-4c], the Ki in assay [1] is 391 nM; on 5-HT transporter, above 10 µM. Also, the IC50 on dopamine transporter came to 5370 nM.

For the compound `COC(=O)C(c1ccc(Cl)c(Cl)c1)C1C=CCCN1` [(2R,2′S)-4d], the Ki in assay [1] is 109 nM. In addition, the IC50 on dopamine transporter turned out to be 216 nM.

Take `O=C(CCCN1CCC(O)(c2ccc(Cl)cc2)CC1)c1ccc(F)cc1` [haloperidol]: the “hyperactivity in ckr mice” value in the assay with ckr mouse is “dose-dependent attenuation of hyperactivity”.

Take `COC(=O)[C@H](c1ccc(Cl)cc1)[C@@H]1C=CCCN1` [(2R,2′S)-4c]: the figures for the Ki (in assay [1]; at 5-HT transporter) were 3310 nM and above 10 µM, respectively. The compound also came in with an IC50 at dopamine transporter of 5030 nM.

Regarding `COC(=O)C(c1ccc(Cl)cc1)C1C=CCCN1` (racemic) [(±)-4c], the Ki in assay [1] was 1910 nM; on 5-HT transporter it was above 10 µM. The same compound showed a half-inhibitory concentration (IC50) at dopamine transporter of 6380 nM.

`COC(=O)[C@H](c1ccc2ccccc2c1)[C@@H]1C=CCCN1` [(2R,2′S)-4f]: the Ki in assay [1] was 323 nM; on 5-HT transporter, 0.608 µM. Also, the IC50 at dopamine transporter was 547 nM.

As to `COC(=O)[C@@H](c1ccc(Br)cc1)[C@H]1C=CCCN1` [(2S,2′R)-4b, (S)-Methyl 2-(4-bromophenyl)-2-((R)-1,2,5,6-tetrahydropyridin-2-yl)acetate hydrochloride], the half-inhibitory concentration (IC50) at dopamine transporter came to 5340 nM.

`COC(=O)[C@H](c1ccc(Br)cc1)[C@@H]1C=CCCN1` [(2R,2′S)-4b] showed an IC50 at dopamine transporter of 5590 nM.

Take `COC(=O)C(c1ccc(Br)cc1)C1C=CCCN1` (racemic) [(±)-4b]: the IC50 at dopamine transporter is 6020 nM.

Consider `COC(=O)C(c1ccc(Cl)c(Cl)c1)C1C=CCCN1` [(2S,2′R)-4d], for which the Ki in assay [1] is 193 nM; on 5-HT transporter, above 10 µM. Besides, the 50% inhibitory concentration (IC50) at dopamine transporter turned out to be 329 nM.

Regarding `COC(=O)[C@@H](c1ccc2ccccc2c1)[C@H]1C=CCCN1` [(2S,2′R)-4f], the values for the inhibition constant (Ki) (in assay [1]; at 5-HT transporter) were 800 nM and 1.96 µM, respectively. In addition, on dopamine transporter, the half-maximal inhibitory concentration (IC50) was found to be 864 nM.

Regarding `COC(=O)C(c1ccc2ccccc2c1)C1C=CCCN1` (racemic) [(±)-4f], the inhibitory constant (Ki) amounted to 1190 nM in assay [1] and 1.2 µM on 5-HT transporter. Besides, the IC50 at dopamine transporter worked out at 496 nM.
